{"source": "patent US20240382475A1", "about": "“Quinazoline Derivative, Or Preparation Method Therefor And Use Thereof” (Zhejiang Hisun Pharmaceutical Co., Ltd., priority 2021, published 2024)", "key": {"[1]": {"test_system": "human lung cancer NCI-H2122 subcutaneous xenotransplanted tumor", "assay": "Pharmacodynamic evaluation in nude mouse subcutaneous xenotransplanted model of human lung cancer NCI-H2122", "format": "in vivo, Balb/c nude mouse", "details": "30 mg/kg each agent", "protocol": "The anti-tumor effect and safety of compound 11 of the present invention were evaluated in a Balb/c nude mouse animal model of subcutaneous xenotransplanted NCI-H2122.\nBALB/c; nude mice, female, 6-7 weeks old (the age of mice when tumor cells were inoculated), purchased from Jiangsu Jicui Yaokang Biotechnology Co., Ltd.\nThe solvent control group was given DMSO:castor oil:5% glucose injection=20:10:70 (v/v/v).\nAMG-510: an appropriate amount of AMG-510 was weighed, and an appropriate amount of DMSO:castor oil:5% glucose injection=20:10:70 (v/v/v) was added. After the above mixture was fully dissolved, an appropriate amount of 1 M hydrochloric acid was added, vortexed and mixed to prepare a solution with a concentration of 3 mg/mL.\nCompound 11: an appropriate amount of compound 11 was weighed, and an appropriate amount of DMSO:castor oil:5% glucose injection=20:10:70 (v/v/v) was added. After the above mixture was fully dissolved, an appropriate amount of 1 M hydrochloric acid was added, vortexed and mixed to prepare a solution with a concentration of 3 mg/mL.\nH2122 cells were cultured in 1640 culture medium containing 10% fetal bovine serum and 1% penicillin-streptomycin-amphotericin B solution. H2122 cells in the exponential growth phase were collected and resuspended in matrigel solution (matrigel:PBS=1:1 (V/V)) to a suitable concentration for subcutaneous tumor inoculation in nude mice.\nFemale Balb/c nude mice were subcutaneously inoculated with about 3.0×10^6H2122 cells on the right sides of their backs. When the average volume of the tumors reaches about 150-200 mm^3, the mice were randomly divided according to the tumor sizes with 6 mice in each group.\n• Group 1 (G1), solvent control group; • Group 2 (G2), AMG-510 was given by intragastric administration at a dose of 30 mg/kg; • Group 3 (G3), Example 11 was given by intragastric administration at a dose of 30 mg/kg; • Group 4 (G4), AMG-510 and Example 11 were administered in combination, and the dosages were respectively: AMG-510, 30 mg/kg (QD); Example 11, 30 mg/kg (QD).\nAfter tumor inoculation, routine monitoring included the effects of tumor growth and treatment on the normal behaviors of the animals, specifically the mobility, feeding and drinking, weight gain or loss, eyes, coat and other abnormalities of the experimental animals.\nCalculation formulae for a relative tumor volume (RTV), a relative tumor proliferation rate (T/C) and a tumor inhibition percentage (IR) were as follows: • (1) TV (tumor volume)=½×a×b^2, wherein a and b represent the length and width of the tumor respectively; • (2) RTV (relative tumor volume)=Vt/Vo, wherein Vo is the tumor volume measured at the time of administration when grouping (i.e. do), and Vt is the tumor volume at each measurement; • (3) relative tumor proliferation rate T/C (%)=TRTV/CRTV×100%, wherein TRTV is the RTV of the treatment group and CRTV is the RTV of the control group; • (4) Tumor growth inhibition rate TGI(%)=(1−T/C)×100%; wherein, T and C are the relative tumor volumes of the treatment group and the control group at a specific time point. • (5) IR (%)=(1−TWt/TWc)×100%, wherein, TWt is the tumor weight of the treatment group and TWc is the tumor weight of the control group. The anti-tumor evaluation criteria are (cytotoxic drugs): T/C(%)>40% is invalid; T/C(%)≤40%, and after statistical processing, P<0.05 is effective."}, "[2]": {"test_system": "OCI-AML5 cells", "assay": "Inhibition of OCI-AML5 cell proliferation (CellTiter-Glo)", "format": "cell-based", "details": "Homo sapiens, OCI-AML-5; OCI-AML5 cells (SOS1 N233Y mutation), 120 hours", "protocol": "The following method was used to determine the influence of the compounds of the present invention on OCI-AML5 cells proliferation. OCI-AML5 cells (containing SOS1 N233Y mutation) were purchased from Nanjing Kebai Biotechnology Co., Ltd. and cultured in MEMα medium containing 10% fetal bovine serum, 100 U penicillin, and 100 μg/mL streptomycin. The activities of the cells were determined by CellTiter-Glo® Luminescent Cell Viability Assay Kit (Promega, Art. No. G7573).\nThe experimental method was operated according to the steps in the kit instruction, which were briefly described as follows: the test compounds were first dissolved in DMSO to prepare storage solutions of 10 mM, and then diluted with culture mediums to prepare test samples. The final concentrations of the compounds were 10000 nM to 0.15 nM. Cells in logarithmic phase were inoculated in a 96-well cell culture plate with 1,000 cells per well, after cultured overnight in 5% CO2 incubator at 37° C., the test compounds were added to the incubator to continue the culture for 120 hours. After the culture was completed, 50 μL of CellTiter-Glo detection solution was added to each well, shaken for 5 minutes and then stood for 10 minutes. Then, a Luminescence mode was used to read the luminescence values of each well of the samples on a microplate reader."}, "[3]": {"biological_target": "T1, KRAS-G12C/SOS1 (Homo sapiens, UniProt Q07889)", "T1 construct": "purchased Cisbio 63ADK000CB16PEG", "T1 sequence (Q07889 1-1333)": "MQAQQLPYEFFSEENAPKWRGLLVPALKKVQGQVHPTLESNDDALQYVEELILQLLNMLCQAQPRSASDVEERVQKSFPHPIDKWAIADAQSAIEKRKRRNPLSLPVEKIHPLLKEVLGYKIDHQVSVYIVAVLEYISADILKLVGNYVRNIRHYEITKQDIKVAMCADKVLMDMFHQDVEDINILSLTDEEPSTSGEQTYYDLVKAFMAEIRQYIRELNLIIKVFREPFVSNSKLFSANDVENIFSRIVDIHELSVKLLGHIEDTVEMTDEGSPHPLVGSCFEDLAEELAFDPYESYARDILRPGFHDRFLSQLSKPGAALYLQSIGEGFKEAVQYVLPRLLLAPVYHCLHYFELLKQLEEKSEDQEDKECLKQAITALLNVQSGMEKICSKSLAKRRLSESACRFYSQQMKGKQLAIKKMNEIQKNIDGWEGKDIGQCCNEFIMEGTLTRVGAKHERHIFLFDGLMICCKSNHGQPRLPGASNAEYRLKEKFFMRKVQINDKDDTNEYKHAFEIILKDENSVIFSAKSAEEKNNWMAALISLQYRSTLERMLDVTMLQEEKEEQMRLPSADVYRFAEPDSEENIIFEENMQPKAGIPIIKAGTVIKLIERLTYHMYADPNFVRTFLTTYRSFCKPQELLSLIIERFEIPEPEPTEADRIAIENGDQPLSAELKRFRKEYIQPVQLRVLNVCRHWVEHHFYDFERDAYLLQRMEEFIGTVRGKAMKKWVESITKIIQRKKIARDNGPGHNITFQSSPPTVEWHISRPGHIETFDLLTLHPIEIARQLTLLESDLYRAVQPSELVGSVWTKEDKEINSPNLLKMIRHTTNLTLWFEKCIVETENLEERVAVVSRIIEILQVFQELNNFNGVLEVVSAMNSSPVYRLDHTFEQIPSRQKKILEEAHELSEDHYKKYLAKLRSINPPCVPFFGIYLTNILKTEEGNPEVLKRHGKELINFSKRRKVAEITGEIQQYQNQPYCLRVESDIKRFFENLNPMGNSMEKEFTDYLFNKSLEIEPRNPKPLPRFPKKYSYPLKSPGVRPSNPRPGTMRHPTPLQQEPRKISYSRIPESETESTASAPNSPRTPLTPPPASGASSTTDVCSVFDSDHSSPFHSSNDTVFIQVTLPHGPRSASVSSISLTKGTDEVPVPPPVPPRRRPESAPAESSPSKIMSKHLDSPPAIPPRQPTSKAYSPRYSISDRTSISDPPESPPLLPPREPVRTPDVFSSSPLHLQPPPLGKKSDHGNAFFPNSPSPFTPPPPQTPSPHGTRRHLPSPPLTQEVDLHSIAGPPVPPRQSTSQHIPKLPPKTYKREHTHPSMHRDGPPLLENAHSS", "assay": "Blocking the binding of KRAS G12C protein to SOS1 (Cisbio KRAS-G12C/SOS1 binding assay kit, TR-FRET)", "details": "Tag1-SOS1 and Tag2-KRAS-G12C, TR-FRET 665/620; read-out: IC50 (nM) Inhibition of KRAS-G12C/SOS1 binding", "source_text": "The following method was used to determine the abilities of compounds of the invention to block the interaction of SOS1 with the KRAS G12C protein in vitro. KRAS-G12C/SOS1 BINDING ASSAY KITS (Art. No. 63ADK000CB16PEG) from Cisbio was used in this method. Please refer to the kit instruction for detailed experimental operations.\nThe experimental process can be briefly described as follows: diluent buffer (Art. No. 62DLBDDF) was used to prepare a working solution with a concentration of 5× for Tag1-SOS1 and Tag2-KRAS-G12C protein. The test compounds were dissolved in DMSO to prepare storage solutions of 10 mM, and then the solutions were diluted with dilution buffer for later use. First, 2 μL of the test compound (the final concentrations of the reaction system were 10000 nM-0.1 nM) was added to the well, then 4 μL of Tag1-SOS1 5× working solution and 4 μL of Tag2-KRAS-G12C 5× working solution were added, and the above mixture was centrifuged, mixed, and stood for 15 minutes; then 10 μL of premixed anti-Tag1-Tb^3+ and anti-Tag2-XL665 were added, and the mixture was incubated at room temperature for 2 hours; finally, a microplate reader was used in […] mode to measure the fluorescence intensity of each well emitting wavelengths of 620 nm and […] under the excitation wavelength of 304 nm, and the fluorescence intensity ratio 665/620 in each well was calculated. Compared with the fluorescence intensity ratio of a control group (0.1% DMSO), the percentage inhibition rates of the test compounds at each concentration were calculated, and the IC50 values of the compounds were obtained by performing nonlinear regression analysis with logarithmic values of the compound concentration-inhibition rate by GraphPad Prism 5 software, which was shown in Table 1."}}}
{"smiles": "C=CC(=O)N1CCN(c2nc(=O)n(-c3c(C)ccnc3C(C)C)c3nc(-c4c(O)cccc4F)c(F)cc23)[C@@H](C)C1", "note": "[AMG-510, reference compound]", "values": [{"measurement": "Relative tumor volume (x ± S)", "setting": "[1]; 16 days after administration", "value": "2.90 ± 0.26"}, {"measurement": "TGI %", "setting": "[1]; 16 days after administration", "value": 43.0, "unit": "%"}, {"measurement": "Tumor volume (x ± S)", "setting": "[1]; Day 0 after administration, intragastric", "value": "199 ± 21", "unit": "mm^3"}, {"measurement": "Tumor volume (x ± S)", "setting": "[1]; Day 3 after administration, intragastric", "value": "263 ± 17", "unit": "mm^3"}, {"measurement": "Tumor volume (x ± S)", "setting": "[1]; Day 7 after administration, intragastric", "value": "343 ± 29", "unit": "mm^3"}, {"measurement": "Tumor volume (x ± S)", "setting": "[1]; Day 10 after administration, intragastric", "value": "406 ± 38", "unit": "mm^3"}, {"measurement": "Tumor volume (x ± S)", "setting": "[1]; Day 14 after administration, intragastric", "value": "538 ± 47", "unit": "mm^3"}, {"measurement": "Tumor volume (x ± S)", "setting": "[1]; Day 16 after administration, intragastric", "value": "563 ± 58", "unit": "mm^3"}, {"measurement": "Tumor volume (x ± S)", "setting": "[1]; Table 11, 16 days after administration, in mm³", "value": "563 ± 58"}, {"measurement": "Inhibition rate of tumor weight (%)", "setting": "[1]; end of the experiment", "value": 44.3, "unit": "%"}, {"measurement": "Tumor weight (g) (x ± S)", "setting": "[1]; end of the experiment", "value": "0.4203 ± 0.0447", "unit": "g"}]}
{"smiles": "COc1cc2nc(C)nc(N[C@H](C)c3cccc(C#N)c3C)c2cc1N1CCN2C(=O)CCC2C1", "note": "(stereo partly drawn) [Compound 3, 3-((1R)-1-((7-methoxy-2-methyl-6-(6-oxohexahydropyrrolo[1,2-a]pyrazin-2(1H)-yl)quinazolin-4-yl)amino)ethyl)-2-methylbenzonitrile]", "values": [{"measurement": "IC50", "setting": "[2]", "value": 42.9, "unit": "nM"}]}
{"smiles": "COc1cc2nc(C)nc(N[C@H](C)c3cccc(C#N)c3C)c2cc1N1CCC(N2CCOCC2)CC1", "note": "[Compound 6, (R)-3-(1-((7-methoxy-2-methyl-6-(4-morpholinopiperidin-1-yl)quinazolin-4-yl)amino)ethyl)-2-methylbenzonitrile]", "values": [{"measurement": "IC50", "setting": "[3]", "value": 1.1, "unit": "nM"}, {"measurement": "IC50", "setting": "[2]", "value": 5.5, "unit": "nM"}]}
{"smiles": "COc1cc2nc(C)nc(N[C@H](C)c3cccc(C#N)c3C)c2cc1N1CC2COCC2C1", "note": "(stereo partly drawn) [Compound 9, 3-((1R)-1-((7-methoxy-2-methyl-6-(tetrahydro-1H-furo[3,4-c]pyrrol-5(3H)-yl)quinazolin-4-yl)amino)ethyl)-2-methylbenzonitrile]", "values": [{"measurement": "IC50", "setting": "[3]", "value": 53.7, "unit": "nM"}, {"measurement": "IC50", "setting": "[2]", "value": 25, "unit": "nM"}]}
{"smiles": "COc1cc2nc(C)nc(N[C@H](C)c3cccc(C#N)c3C)c2cc1N1CCC2(CC1)CN(S(C)(=O)=O)C2", "note": "[Compound 16, (R)-3-(1-((7-methoxy-2-methyl-6-(2-(methylsulfonyl)-2,7-diazaspiro[3.5]nonan-7-yl)quinazolin-4-yl)amino)ethyl)-2-methylbenzonitrile]", "values": [{"measurement": "IC50", "setting": "[3]", "value": 54.3, "unit": "nM"}]}
{"smiles": "COc1cc2nc(C)nc(N[C@H](C)c3cccc(C#N)c3C)c2cc1N1CCC(N2CCCC2=O)CC1", "note": "[Compound 21, (R)-3-(1-((7-methoxy-2-methyl-6-(4-(2-oxopyrrolidin-1-yl)piperidin-1-yl)quinazolin-4-yl)amino)ethyl)-2-methylbenzonitrile]", "values": [{"measurement": "IC50", "setting": "[3]", "value": 63.2, "unit": "nM"}]}
{"smiles": "COc1cc2nc(C)nc(N[C@H](C)c3cccc(C#N)c3C)c2cc1N1CCC(N2CCN(S(C)(=O)=O)CC2)CC1", "note": "[Compound 23, (R)-3-(1-((7-methoxy-2-methyl-6-(4-(4-(methylsulfonyl)piperazin-1-yl)piperidin-1-yl)quinazolin-4-yl)amino)ethyl)-2-methylbenzonitrile]", "values": [{"measurement": "IC50", "setting": "[2]", "value": 41.1, "unit": "nM"}]}
